In US12678488B2, “Batch management method for improving farrowing rate or number of piglets born alive in swine” (priority 2024, dated 2026):
“Also recorded” adds a separate entry of the source. Marks after values point to notes of the source that are not given here.

System: Landrace x Large White reserve sows
Test: B-Scan ultrasonic monitoring of follicles: ovulation time and ovarian cyst in gilts (Example 2)
Assay type: in vivo, pigs
Description: Landrace x Large White reserve sows, about 230 days old, were randomly divided into a batch farrowing with FTAI and batch farrowing with FTAI combined with different doses of 1-[bis(4-cyanophenyl)methyl]-1,2,4-triazole groups, and during the experiment, the experimental sows in each group were fed regularly and gained free access to water according to the requirements of feeding management in the farm.
Referring to the dosage of 1-[bis(4-cyanophenyl)methyl]-1,2,4-triazole in clinical medicine and using standard weight-dosage conversion, the recommended dosage of 1-[bis(4-cyanophenyl)methyl]-1,2,4-triazole for sows was 50-150 μg/kg·BW/day, orally for consecutive 5 days, as derived by conversion. In addition, the applicant previously studied uniparous cows, and in the ovulation induction scheme, the reference dosage of 1-[bis(4-cyanophenyl)methyl]-1,2,4-triazole was 60-200 μg/kg·BW, administered in a single dose; furthermore, by means of conversion in conjunction with the dosage for model animals (mice) previously in the laboratory, various dosages were designed. The treatment methods of hormones and drugs for sows in each group were as follows: • batch farrowing with FTAI: the sows were fed with an altrenogest oral solution at 20 mg/animal at the same time every day, for 18 days; PMSG at 1000 IU/animal was injected intramuscularly 42 h after the last feeding with altrenogest, GnRH at 100 μg/animal was injected intramuscularly 80 h after the injection of PMSG, a first timed insemination was performed 24 h after the injection of GnRH, and a second timed insemination was performed 16 h after the first insemination.
Treatment group 1: the hormone treatment and mating schemes for gilts were the same as FTAI. The difference lay in that PMSG at 1000 IU/gilt was injected intramuscularly 42 h after the last feeding with altrenogest, and 1-[bis(4-cyanophenyl)methyl]-1,2,4-triazole at 12 μg/kg·BW/day was administered orally 8 h after the injection of PMSG, for 1 day.
Treatment group 2: the hormone treatment and mating schemes for gilts were the same as FTAI. The difference lay in that PMSG at 1000 IU/gilt was injected intramuscularly 42 h after the last feeding with altrenogest, and 1-[bis(4-cyanophenyl)methyl]-1,2,4-triazole at 12 μg/kg·BW/day was administered orally 8 h after the injection of PMSG, for 2 days.
Treatment group 3: the hormone treatment and mating schemes for gilts were the same as FTAI. The difference lay in that PMSG at 1000 IU/gilt was injected intramuscularly 42 h after the last feeding with altrenogest, and 1-[bis(4-cyanophenyl)methyl]-1,2,4-triazole at 20 μg/kg·BW/day was administered orally 8 h after the injection of PMSG, for 1 day.
Treatment group 4: the hormone treatment and mating schemes for sows were the same as FTAI. The difference lay in that PMSG at 1000 IU/gilt was injected intramuscularly 42 h after the last feeding with altrenogest, and 1-[bis (4-cyanophenyl)methyl]-1,2,4-triazole at 20 μg/kg·BW/day was administered orally 8 h after the injection of PMSG, for 2 days.
Treatment group 5: the hormone treatment and mating schemes for gilts were the same as FTAI. The difference lay in that PMSG at 1000 IU/animal was injected intramuscularly 42 h after the last feeding with altrenogest, and 1-[bis(4-cyanophenyl)methyl]-1,2,4-triazole at 20 μg/kg·BW/day was administered orally 8 h after the injection of PMSG, for 3 days.
Treatment group 6: the hormone treatment and mating schemes for gilts were the same as FTAI. The difference lay in that PMSG at 1000 IU/animal was injected intramuscularly 42 h after the last feeding with altrenogest, and 1-[bis(4-cyanophenyl)methyl]-1,2,4-triazole at 20 μg/kg·BW/day was administered orally 8 h after the injection of PMSG, for 5 days.
Treatment group 7: the hormone treatment and mating schemes for gilts were the same as FTAI. […]

[1] = 80 and 160 μg/kg·BW/day for 5 consecutive days (treatment groups 9 and 10)
[2] = Example 2 Treatment group 1: 12 μg/kg·BW/day orally, 1 day, gilts
[3] = Example 2 Treatment group 2: 12 μg/kg·BW/day orally, 2 days, gilts
[4] = Example 2 Treatment group 3: 20 μg/kg·BW/day orally, 1 day, gilts
[5] = Example 2 Treatment group 4: 20 μg/kg·BW/day orally, 2 days, gilts
[6] = Example 2 Treatment group 5: 20 μg/kg·BW/day orally, 3 days, gilts
[7] = Example 2 Treatment group 6: 20 μg/kg·BW/day orally, 5 days, gilts
[8] = Example 2 Treatment group 7: 40 μg/kg·BW/day orally, 1 day, gilts
[9] = Example 2 Treatment group 8: 40 μg/kg·BW/day orally, 5 days, gilts
[10] = Example 2 Treatment group 9: 80 μg/kg·BW/day orally, 5 days, gilts
[11] = Example 2 Treatment group 10: 160 μg/kg·BW/day orally, 5 days, gilts
[12] = gilts, with the increase of the dosage
[13] = low-dose, batch farrowing with FTAI

N#Cc1ccc(C(c2ccc(C#N)cc2)n2cncn2)cc1 [1-[bis(4-cyanophenyl)methyl]-1,2,4-triazole] was tested, and the ovarian cyst [1] was “had a cyst problem”, the “ovulation for 10 days after stopping taking altrenogest” value [1] was “did not ovulate” and the “Cyst ratio (%)” value [2] was 0.00^b %. The “Interval from stopping taking Altrenogest to ovulation (h)” value (shortened to “Interval”) [2] was 170.13 ± 3.87^a h, the “Number of animals with ovarian cyst” value [2] was 0 and the “Number of animals with ovulation” value [2] was 27. For the same compound, the “Cyst ratio (%)” value [3] was 0.00^b %, the “Interval” value [3] was 172.15 ± 3.34^a h and the “Number of animals with ovarian cyst” value [3] was 0. For the same compound, the “Number of animals with ovulation” value [3] was 23, the “Cyst ratio (%)” value [4] was 0.00^b % and the “Interval” value [4] was 169.57 ± 2.19^a h. The “Number of animals with ovarian cyst” value [4] was 0, the “Number of animals with ovulation” value [4] was 22 and the “Cyst ratio (%)” value [5] was 0.00^b %. The “Interval” value [5] was 194.25 ± 2.96^b h, the “Number of animals with ovarian cyst” value [5] was 0 and the “Number of animals with ovulation” value [5] was 21. For the same compound, the “Cyst ratio (%)” value [6] was 11.53^c %, the “Interval” value [6] was 177.79 ± 4.75^a h and the “Number of animals with ovarian cyst” value [6] was 3. The “Number of animals with ovulation” value [6] was 24, the “Cyst ratio (%)” value [7] was 15.38^c % and the “Interval” value [7] was 187.67 ± 3.69^b h. For the same compound, the “Number of animals with ovarian cyst” value [7] was 4, the “Number of animals with ovulation” value [7] was 20 and the “Cyst ratio (%)” value [8] was 11.53^c %. For the same compound, the “Interval” value [8] was 191.50 ± 5.74^b h, the “Number of animals with ovarian cyst” value [8] was 3 and the “Number of animals with ovulation” value [8] was 22. For the same compound, the “Cyst ratio (%)” value [9] was 79.17^c %, the “Interval” value [9] was 210.00 ± 2.65^b h and the “Number of animals with ovarian cyst” value [9] was 19. The “Number of animals with ovulation” value [9] was 4, the “Cyst ratio (%)” value [10] was 100.00^c % and the “Number of animals with ovarian cyst” value [10] was 24. For the same compound, the “Number of animals with ovulation” value [10] was 0, the “Cyst ratio (%)” value [11] was 100.00^c % and the “Number of animals with ovarian cyst” value [11] was 24. The “Number of animals with ovulation” value [11] was 0, the ovulation time (gilts, treatment groups 1, 2, 3, and 5, compared with batch farrowing with FTAI) was “no significant difference” and the “number of ovarian cysts” value [12] was “increased”. The “time from stopping taking altrenogest to ovulation” value [12] was “prolonged”, the ovarian cysts (high-dose) was “caused ovarian cysts” and the ovulation in sows (high-dose) was “inhibited”. For the same compound, the ovarian cyst [13] was “no ovarian cyst was caused”, the ovulation time [13] was “no significant change” and the “ovarian cyst, B-scan ultrasonic inspection” value (sows, high-dose 80 μg/kg·BW (FIG. 5)) was “presented as cyst; also recorded: ovarian cyst is presented”. For the same compound, the “ovulation, B-scan ultrasonic inspection” value (sows, high-dose 80 μg/kg·BW (FIG. 5), day 10 after stopping altrenogest) was “no ovulation was observed” and the “ovulation, B-scan ultrasonic inspection” value (sows, low-dose 12 μg/kg·BW (FIG. 4)) was “ovulate normally”.
